{"source": "paper PMC3668458", "about": "(Journal of neuroscience research, 2011)", "molecular_target": "α4β2 nicotinic acetylcholine receptor (α4 subunit) (Homo sapiens, UniProt P17787+P43681)", "sequence (P43681 27-627)": "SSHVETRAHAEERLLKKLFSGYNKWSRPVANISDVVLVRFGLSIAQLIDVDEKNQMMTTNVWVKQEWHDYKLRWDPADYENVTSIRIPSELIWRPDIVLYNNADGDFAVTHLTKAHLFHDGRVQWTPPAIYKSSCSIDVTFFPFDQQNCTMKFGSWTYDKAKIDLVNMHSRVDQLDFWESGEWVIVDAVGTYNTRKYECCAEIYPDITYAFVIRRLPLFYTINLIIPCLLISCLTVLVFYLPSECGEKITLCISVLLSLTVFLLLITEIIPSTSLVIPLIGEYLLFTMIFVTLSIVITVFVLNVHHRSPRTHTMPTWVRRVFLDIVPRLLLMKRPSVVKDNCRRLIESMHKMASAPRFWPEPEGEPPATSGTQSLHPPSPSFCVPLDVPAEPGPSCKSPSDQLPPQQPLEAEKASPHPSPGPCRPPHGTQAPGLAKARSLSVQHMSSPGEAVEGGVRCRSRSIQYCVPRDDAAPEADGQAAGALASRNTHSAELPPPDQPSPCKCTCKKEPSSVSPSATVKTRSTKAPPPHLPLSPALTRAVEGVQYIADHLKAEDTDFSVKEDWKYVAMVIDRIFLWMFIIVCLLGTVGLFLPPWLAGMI", "sequence (P17787 26-502)": "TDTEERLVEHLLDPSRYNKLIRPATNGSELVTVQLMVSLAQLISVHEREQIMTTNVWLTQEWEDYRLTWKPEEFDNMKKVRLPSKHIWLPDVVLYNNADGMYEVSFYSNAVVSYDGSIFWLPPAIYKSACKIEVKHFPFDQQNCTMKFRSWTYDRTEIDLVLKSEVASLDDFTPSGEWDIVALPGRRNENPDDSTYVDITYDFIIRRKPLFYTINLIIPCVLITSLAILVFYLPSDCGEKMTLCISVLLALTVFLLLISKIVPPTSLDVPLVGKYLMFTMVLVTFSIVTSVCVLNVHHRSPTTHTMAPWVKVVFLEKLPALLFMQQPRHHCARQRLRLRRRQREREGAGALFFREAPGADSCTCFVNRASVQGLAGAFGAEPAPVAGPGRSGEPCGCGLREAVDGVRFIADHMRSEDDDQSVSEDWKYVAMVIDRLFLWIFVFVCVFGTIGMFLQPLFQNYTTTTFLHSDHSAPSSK", "assay": "whole-cell patch clamp, Schild plot analysis of inhibition of ACh currents", "assay_type": "cell-based"}
{"compound": "O=[N+]([O-])NC1=NCCN1Cc1ccc(Cl)nc1", "note": "[IMI, imidacloprid]", "values": [{"measurement": "Kb", "value": "18.2 ± 0.9", "unit": "µM"}]}
